# Key:
# [1] = Organ distribution by fluorescence microscopy; assay type: in vivo; details: rats, after IV injection of nanospheres containing rhodamine, image analysis
# Experimental: 0.5 ml was taken at each time step. Plasma levels of rhodamine were measured by fluorescence detection. […] Organs were examined by fluorescence microscopy.
# [2] = In vitro Rhodamine release (dialysis bag, phosphate buffer); assay type: physicochemical; details: 37° C.
# Experimental: The in vitro Rhodamine release profiles from the (-PLA-PEG-PLA-)n multiblock NS were determined as follows: NS were precisely weighed and suspended in 10 ml of phosphate buffer solution. The NS suspension was introduced into a dialysis membrane bag (Spectra/por™, Molecular weight cut off: 2000-4000, Spectrum Medical Industries, Inc., CA, USA) that was placed in 150 ml of phosphate buffer. This solution was stirred at 37° C. At pre-determined time intervals, 3 ml aliquots of the release medium were withdrawn from the release medium. The release of Rhodamine was monitored using a spectrofluorometer at an excitation wavelength of […] and emission wavelength of 554 nm. The sample was replaced in the release medium. The samples were analyzed by fluorescence since sensitivity will be needed for the incoming blood samples analysis.
# [3] = lifetime of free rhodamine; cited from earlier work
structure (smiles),measurement,setting,value
"CCN(CC)c1ccc2c(-c3ccccc3C(=O)O)c3ccc(=[N+](CC)CC)cc-3oc2c1 [Rhodamine, Rhodamine B]",Rhodamine accumulation in the organs,[1],No Rhodamine accumulation
same,time of release,[2],≤ 30 min
same,t1/2 in the body,[3],3 h

# Reference: patent US20060165987A1, “Stealthy polymeric biodegradable nanospheres and uses thereof” (priority 2002, published 2006)
